Experiments:
[1] = biological target: T1, CFTR in F508del/F508del primary CF hBE cells (Homo sapiens, UniProt P13569, DEL508-508); experiment: Ussing chamber electrophysiology assay of CFTR potentiation in F508del/F508del CF bronchial epithelial cells (27° C.); assay type: cell-based
T1 construct: Primary cystic fibrosis human bronchial epithelial (CF hBE) cells were expanded and cultured; endogenous in cells; host or cells: primary CF human bronchial epithelial cells, genotype F508del/F508del
Text: • SHELXTL, Version 5.1, Bruker AXS, 1997. • PLATON, A. L. Spek, J. Appl. Cryst. 2003, 36, 7-13. • MERCURY, C. F. Macrae, P. R. Edington, P. McCabe, E. Pidcock, G. P. Shields, R. Taylor, M. Towler and J. van de Streek, J. Appl. Cryst. 39, 453-457, 2006. • OLEX2, Dolomanov, O. V.; Bourhis, L. J.; Gildea, R. J.; Howard, J. A. K.; Puschmann, H., (2009). J. Appl. Cryst., 42, 339-341. • R. W. W. Hooft et al. J. Appl. Cryst. (2008). 41. 96-103. • H. D. Flack, Acta Cryst. 1983, A39, 867-881. Using Chamber Electrophysiology Assay of CFTR Potentiation in CF Bronchial Epithelial Cells
Primary cystic fibrosis human bronchial epithelial (CF hBE) cells were expanded and cultured according to published methods (Neuberger et al., Ch. 4 of Cystic Fibrosis, Methods in Molecular Biology vol. 741, pp. 39-54 (2011)). Well-differentiated cells (>30 days at air/liquid interface) on Snapwell filters (Corning Costar, cat. no. 3801) were mounted in Ussing chambers (Physiologic Instruments, Inc., San Diego, CA). […] HEPES buffered physiological saline (composition (in mM): 137 NaCl, 4 KCl, 1 MgCl2, 1.8 CaCl2), 10 HEPES Na) was used in both apical and basolateral chambers. Chambers were bubbled with air to promote mixing and the voltage was clamped to zero. Amiloride (30 uM), forskolin (10 uM), test compound (4 increasing concentrations), and CFTRinh-172 (20 uM) were added sequentially with 20-25 minutes between additions. Short-circuit currents were acquired and analyzed using LabScribe2. Test compound responses were scaled relative to responses for DMSO (0%) and the maximal response of a positive control potentiator (100%).

[2] = biological target: T2, recombinant F508del V470 CFTR in Fischer rat thyroid (FRT) cells (Homo sapiens, UniProt P13569, DEL508-508); experiment: FRT ion flux assay of F508del CFTR potentiation; assay type: cell-based; settings: FRT cells expressing F508del V470 CFTR, forskolin 20 uM, 27° C. pre-incubation
T2 construct: expressed in transfected cells
T2 sequence (P13569 with tags, fused parts or gaps DEL508-508): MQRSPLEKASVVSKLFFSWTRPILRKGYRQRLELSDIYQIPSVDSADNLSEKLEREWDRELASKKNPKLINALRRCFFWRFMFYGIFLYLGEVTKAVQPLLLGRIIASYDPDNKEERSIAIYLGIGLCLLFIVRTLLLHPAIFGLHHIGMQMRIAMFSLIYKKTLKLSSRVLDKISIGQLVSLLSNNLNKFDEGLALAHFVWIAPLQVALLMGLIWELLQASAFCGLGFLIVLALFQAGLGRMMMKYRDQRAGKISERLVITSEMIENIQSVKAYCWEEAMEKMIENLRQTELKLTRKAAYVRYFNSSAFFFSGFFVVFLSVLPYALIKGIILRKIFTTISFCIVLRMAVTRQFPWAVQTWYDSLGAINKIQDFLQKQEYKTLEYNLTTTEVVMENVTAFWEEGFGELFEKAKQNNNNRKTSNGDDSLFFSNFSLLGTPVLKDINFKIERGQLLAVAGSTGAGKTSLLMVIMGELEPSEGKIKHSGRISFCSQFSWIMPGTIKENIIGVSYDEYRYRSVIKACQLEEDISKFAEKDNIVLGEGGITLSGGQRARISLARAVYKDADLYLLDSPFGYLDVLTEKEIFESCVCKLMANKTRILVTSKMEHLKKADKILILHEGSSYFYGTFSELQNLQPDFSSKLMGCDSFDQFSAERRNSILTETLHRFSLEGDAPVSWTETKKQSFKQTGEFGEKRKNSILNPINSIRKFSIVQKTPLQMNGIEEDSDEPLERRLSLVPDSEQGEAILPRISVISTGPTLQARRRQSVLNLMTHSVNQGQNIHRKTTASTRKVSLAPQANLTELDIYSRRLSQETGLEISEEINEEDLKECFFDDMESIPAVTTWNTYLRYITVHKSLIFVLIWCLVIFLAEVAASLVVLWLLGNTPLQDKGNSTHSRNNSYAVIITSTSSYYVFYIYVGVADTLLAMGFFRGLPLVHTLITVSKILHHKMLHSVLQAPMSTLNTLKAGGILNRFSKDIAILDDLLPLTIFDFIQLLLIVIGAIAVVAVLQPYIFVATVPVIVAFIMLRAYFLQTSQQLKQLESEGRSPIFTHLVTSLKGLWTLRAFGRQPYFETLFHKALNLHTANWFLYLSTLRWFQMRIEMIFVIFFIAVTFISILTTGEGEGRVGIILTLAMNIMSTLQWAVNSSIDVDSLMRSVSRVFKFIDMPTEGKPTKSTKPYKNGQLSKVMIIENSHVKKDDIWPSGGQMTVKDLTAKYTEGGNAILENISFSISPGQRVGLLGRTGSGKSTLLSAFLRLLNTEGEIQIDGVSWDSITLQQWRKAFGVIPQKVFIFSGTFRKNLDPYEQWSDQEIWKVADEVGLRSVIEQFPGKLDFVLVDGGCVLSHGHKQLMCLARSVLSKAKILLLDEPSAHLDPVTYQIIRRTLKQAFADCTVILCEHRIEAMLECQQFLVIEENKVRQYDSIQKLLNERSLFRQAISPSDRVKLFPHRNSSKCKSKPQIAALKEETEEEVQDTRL
Procedure: FRT Ion Flux Assay of F508del CFTR Potentiation
Fischer rat thyroid (FRT) cell lines stably expressing recombinant F508del V470 CFTR and halide-sensitive yellow fluorescent protein (Pedemonte et al., J. Clin. Invest. 115(9) 2564-71 (2005)) were seeded at 25,000 cells/well in 50 uL/well of culture medium into black-walled, clear bottom tissue-culture-treated 384-well plates (Corning, cat. no. 3712). After one day, the cells were pre-incubated at 27° C./5% CO2 for 16-24 hours. The cells were then washed with dPBS and treated with forskolin (20 uM) and test compound for 30 mi by addition of 20 uL of compound dilution buffer (dPBS containing forskolin and test compound). Plates were loaded into FLIPR384 fluorescence imaging plate reader (Molecular Devices). After an initial fluorescence reading, iodide buffer (25 uL) (composition (in mM): 137 NaI, 1.5 K2PO4, 8.1 NaH2PO4, 2.7 KCl, 0.5 MgCl2, 1 CaCl2) was added and a second fluorescence reading was made after approximately 21 seconds. Data treatment involved division of the second fluorescence reading by the initial fluorescence reading, then scaling of the resulting normalized endpoint fluorescence with respect to the responses for DMSO (0%) and a positive control potentiator (100%).

T1 sequence (P13569 with tags, fused parts or gaps DEL508-508): as above

EC50 [1] [nM] | EC50 [2] [nM] | SMILES
254 | 112 | CC(c1cn(-c2ncccc2F)nn1)n1cc(-c2ccc(Cl)cc2)c2c(N)ncnc21 (stereo not drawn) [Example 287, 5-(4-Chlorophenyl)-7-{1-[1-(3-fluoropyridin-2-yl)-1H-1,2,3-triazol-4-yl]ethyl}-7H-pyrrolo[2,3-d]pyrimidin-4-amine]
6.21 | 2.65 | CC(c1cn(-c2ccccc2F)nn1)n1cc(C2CCC2)c2c(N)ncnc21 (single isomer, unassigned) [Example 110, 5-Cyclobutyl-7-{1-[1-(2-fluorophenyl)-1H-1,2,3-triazol-4-yl]ethyl}-7H-pyrrolo[2,3-d]pyrimidin-4-amine]
297 | 232 | CCC(c1cn(-c2ccccc2F)nn1)n1cc(-c2cncnc2OC)c2c(N)nc(C)nc21 (stereo not drawn) [Example 302, 7-{1-[1-(2-Fluorophenyl)-1H-1,2,3-triazol-4-yl]propyl}-5-(4-methoxypyrimidin-5-yl)-2-methyl-7H-pyrrolo[2,3-d]pyrimidin-4-amine]
11.3 | 38 | CCC(c1cn(-c2ccccc2F)nn1)n1cc(-c2ccc(Cl)cc2)c2c(N)ncnc21 (single isomer, unassigned; enantiomer 2) [Example 132, (+) 5-(4-Chlorophenyl)-7-{1-[1-(2-fluorophenyl)-1H-1,2,3-triazol-4-yl]propyl}-7H-pyrrolo[2,3-d]pyrimidin-4-amine, enantiomer 2]
69 | 69 | CCC(c1cn(-c2ccc(OC)nc2)nn1)n1cc(-c2cnc(C(F)(F)F)nc2)c2c(N)ncnc21 (single isomer, unassigned; enantiomer 1) [Example 309, 7-{1-[1-(6-Methoxypyridin-3-yl)-1H-1,2,3-triazol-4-yl]propyl}-5-[2-(trifluoromethyl)pyrimidin-5-yl]-7H-pyrrolo[2,3-d]pyrimidin-4-amine, enantiomer 1]
26.1 | 112 | Cc1ccc(-c2cn(C(C)c3cnc(-c4ccccc4F)[nH]3)c3ncnc(N)c23)cc1F (stereo not drawn) [Example 68, 5-(3-Fluoro-4-methylphenyl)-7-{1-[2-(2-fluorophenyl)-1H-imidazol-5-yl]ethyl}-7H-pyrrolo[2,3-d]pyrimidin-4-amine]
12 | 21.6 | CCC(c1cn(-c2ccccc2)nn1)n1cc(-c2ccc(OC)nc2)c2c(N)ncnc21 (single isomer, unassigned; enantiomer 2) [Example 126, 5-(6-Methoxypyridin-3-yl)-7-[1-(1-phenyl-1H-1,2,3-triazol-4-yl)propyl]-7H-pyrrolo[2,3-d]pyrimidin-4-amine, enantiomer 2]
448 | 408 | CCC(c1cn(-c2ccccc2)nn1)n1cc(-c2cncnc2OC)c2c(N)ncnc21 (single isomer, unassigned; enantiomer 1) [Example 127, (−) 5-(4-Methoxypyrimidin-5-yl)-7-[1-(1-phenyl-1H-1,2,3-triazol-4-yl)propyl]-7H-pyrrolo[2,3-d]pyrimidin-4-amine, enantiomer 1]
80.3 | 80 | CC(c1cnc(-c2ccccc2F)[nH]1)n1cc(-c2ccc(C(F)(F)F)nc2)c2c(N)ncnc21 (stereo not drawn) [Example 64, 7-{1-[2-(2-Fluorophenyl)-1H-imidazol-5-yl]ethyl}-5-[6-(trifluoromethyl)pyridin-3-yl]-7H-pyrrolo[2,3-d]pyrimidin-4-amine]
187 | 677 | CC(c1cn(-c2ccccc2F)nn1)n1cc(-c2ccc(OC3CC3)nc2)c2c(N)ncnc21 (single isomer, unassigned; enantiomer 1) [Example 119, (−) 5-[6-(Cyclopropyloxy)pyridin-3-yl]-7-{1-[1-(2-fluorophenyl)-1H-1,2,3-triazol-4-yl]ethyl}-7H-pyrrolo[2,3-d]pyrimidin-4-amine, enantiomer 1]
118 | 83 | N#Cc1ccc(-c2cn(Cc3cnc(-c4ccccc4F)[nH]3)c3ncnc(N)c23)cc1F [Example 192, 4-(4-Amino-7-{[2-(2-fluorophenyl)-1H-imidazol-5-yl]methyl}-7H-pyrrolo[2,3-d]pyrimidin-5-yl)-2-fluorobenzonitrile]
19 | 9.04 | CCC(c1cn(-c2ccccc2F)nn1)n1cc(-c2cnc(C(F)(F)F)nc2)c2c(N)ncnc21 (stereo not drawn) [Example 224, 7-{1-[1-(2-Fluorophenyl)-1H-1,2,3-triazol-4-yl]propyl}-5-[2-(trifluoromethyl)pyrimidin-5-yl]-7H-pyrrolo[2,3-d] pyrimidin-4-amine]
35.4 | 176 | Nc1ncnc2c1c(-c1ccc(Cl)cc1)cn2Cc1cnc(-c2ccccc2)[nH]1 [Example 264, 5-(4-Chlorophenyl)-7-[(2-phenyl-1H-imidazol-5-yl)methyl]-7H-pyrrolo[2,3-d]pyrimidin-4-amine]
358 | 230 | COCC(c1cn(-c2ccccc2F)nn1)n1cc(-c2cccnc2OC)c2c(N)ncnc21 (stereo not drawn) [Example 314, 7-{1-[1-(2-Fluorophenyl)-1H-1,2,3-triazol-4-yl]-2-methoxyethyl}-5-(2-methoxypyridin-3-yl)-7H-pyrrolo[2,3-d]pyrimidin-4-amine]
13 | 23.6 | COc1ncc(-c2c(C#N)n(C(C)c3cc(-c4ccccc4F)no3)c3ncnc(N)c23)cn1 (single isomer, unassigned) [Example 14, 4-amino-7-{1-[3-(2-fluorophenyl)-1,2-oxazol-5-yl]ethyl}-5-(2-methoxypyrimidin-5-yl)-7H-pyrrolo[2,3-d]pyrimidine-6-carbonitrile]
8.77 | 7.51 | CC(c1cnn(-c2ccccc2F)c1)n1c(C#N)c(-c2cnc(C(F)F)nc2)c2c(N)ncnc21 (single isomer, unassigned) [Example 2, 4-Amino-5-[2-(difluoromethyl)pyrimidin-5-yl]-7-{1-[1-(2-fluorophenyl)-1H-pyrazol-4-yl]ethyl}-7H-pyrrolo[2,3-d]pyrimidine-6-carbonitrile]
55.4 | 45.8 | CCC(c1cn(-c2cc(F)ccc2F)nn1)n1cc(-c2cncnc2OC)c2c(N)ncnc21 (single isomer, unassigned; enantiomer 1) [Example 307, (+) 7-{1-[1-(2,5-Difluorophenyl)-1H-1,2,3-triazol-4-yl]propyl}-5-(4-methoxypyrimidin-5-yl)-7H-pyrrolo[2,3-d]pyrimidin-4-amine, enantiomer 1]
245 | 180 | COc1ncccc1-c1cn(C2(c3cn(-c4ccccc4F)nn3)CC2)c2ncnc(N)c12 [Example 298, 7-{1-[1-(2-Fluorophenyl)-1H-1,2,3-triazol-4-yl]cyclopropyl}-5-(2-methoxypyridin-3-yl)-7H-pyrrolo[2,3-d]pyrimidin-4-amine]
136 | 533 | CC(c1cn(-c2ccccc2F)nn1)n1cc(-c2ccc(Cl)cc2)c2c(N)ncnc21 (single isomer, unassigned) [Example 111]
2330 | 2950 | CCC(c1cn(-c2ccc(F)cc2F)nn1)n1cc(-c2cnc(C(F)F)nc2)c2c(N)ncnc21 (single isomer, unassigned; enantiomer 2) [Example 168, 5-[2-(Difluoromethyl)pyrimidin-5-yl]-7-{1-[1-(2,4-difluorophenyl)-1H-1,2,3-triazol-4-yl]propyl}-7H-pyrrolo[2,3-d]pyrimidin-4-amine, enantiomer 2]
2.03 | 0.59 | N#Cc1c(-c2cnc(C(F)F)nc2)c2c(N)ncnc2n1Cc1cnn(-c2ccccc2F)c1 [Example 30, 4-Amino-5-[2-(difluoromethyl)pyrimidin-5-yl]-7-{[1-(2-fluorophenyl)-1H-pyrazol-4-yl]methyl}-7H-pyrrolo[2,3-d]pyrimidine-6-carbonitrile]

Source: patent publication US12612409B2, “Pyrrolopyrimidines as CFTR potentiators” (Cystic Fibrosis Foundation, priority 2016, dated 2026)
